Where “and” joins values, the source holds several entries; their conditions need not be identical. Equal entries are not always repeated.
Assays:
[1] = system: CXCL9; assay: Serum CXCL9 in melanoma patients, Multi-Analyte Profile Platform (Myriad RBM); type: in vivo, human; conditions: individual melanoma patients
Experimental: (§1) Subjects were first screened and evaluated for baseline measurements.
(§2) Prior to treatment two (2) baseline serum samples were collected from each patient.
(§3) Three (3) weeks after treatment was initiated, additional serum samples were collected from each patient. Additional biopsy samples were also collected unless the attending physician recommended against the biopsy. Following sample collection, subjects were administered the first of two doses of pembrolizumab (2 mg/kg, i.v.).
(§4) Three (3) weeks after the administration of the first dose of pembrolizumab (six weeks from beginning of treatment) additional serum samples were collected from each patient. Subjects then administered a second dose of pemrolizumab (2 mg/kg, i.v.).
(§5) Three (3) weeks after the administration of the second dose of pembrolizumab (nine weeks from the beginning of treatment) additional serum samples were collected. Additional biopsy samples were also collected unless the attending physician recommended against the biopsy.
(§6) Five (5) additional patients were evaluated. Baselines in Tables 1 and 2 represent measurements taken on Day 1. Baselines in Tables 1a and 2a represent an average of two measurements taken at screening and on Day 1.

[2] = system: CXCL10; assay: Serum CXCL10 in melanoma patients, Multi-Analyte Profile Platform (Myriad RBM); type: in vivo, human; conditions: individual melanoma patients
Experimental: as §1, §2, §3, §4, §5, §6

[3] = system: serum cytokines and chemokines; assay: Serum chemokines, cytokines and growth factors in melanoma patients, change vs baseline; type: in vivo, human
Experimental: as §1, §2, §3, §6

[4] = Solubility of X4P-001; type: physicochemical
[5] = system: advanced or metastatic melanoma; assay: Tumor sample / tumor microenvironment biomarkers in solid tumors such as melanoma; type: in vivo, human
Experimental: A primary comparison is the density of specific cell phenotypes in the tumor microenvironment in the pre-treatment biopsy vs. the Week 4 and EOT biopsies. CD8^+ T cells/mm^−2 are measured in melanoma tumor parenchyma prior to treatment.

[6] = Phase 1 and 2a trials; cited from earlier work
[7] = system: melanoma, renal cell carcinoma, and ovarian cancer; conditions: murine models; cited from earlier work
[8] = in vivo; conditions: terminal half-life (T1/2)
[9] = system: advanced clear-cell renal-cell carcinoma; conditions: cited from earlier work; for objective response rate: Phase 3, nivolumab 3 mg/kg iv every two weeks vs everolimus 10 mg orally daily, P<0.001
[10] = system: pancreatic adenocarcinoma; conditions: cited from earlier work
[11] = system: unresectable or metastatic melanoma; conditions: Phase 3 trial, P<0.001; cited from earlier work
[12] = solid tumors, e.g. advanced or metastatic melanoma

Compound: NCCCCN(Cc1nc2ccccc2[nH]1)[C@H]1CCCc2cccnc21 [X4P-001]
- Patient Serum CXCL9 Levels, Post-X4P-001 Monotherapy ([1]; Table 1, three weeks single agent therapy): 836 pg/mL and 2260 pg/mL and 2530 pg/mL and 843 pg/mL and 2020 pg/mL and 1020 pg/mL and 1410 pg/mL and 766 pg/mL and 794 pg/mL and 1380 pg/mL and 425 pg/mL
- Patient Serum CXCL9 Levels, Post-X4P-001 Monotherapy ([1]; Table 1a (updated data, 16 patients)): 836 pg/mL and 2260 pg/mL and 2530 pg/mL and 843 pg/mL and 2020 pg/mL and 1020 pg/mL and 1410 pg/mL and 766 pg/mL and 1245 pg/mL and 769.5 pg/mL and 460.5 pg/mL and 1030 pg/mL and 1750 pg/mL and 794 pg/mL and 1380 pg/mL and 425 pg/mL
- Patient Serum CXCL10 Levels, Post-X4P-001 Monotherapy ([2]; Table 2, three weeks single agent therapy): 767 pg/mL and 146 pg/mL and 262 pg/mL and 101 pg/mL and 123 pg/mL and 384 pg/mL and 118 pg/mL and 174 pg/mL and 139 pg/mL and 331 pg/mL and 521 pg/mL
- Patient Serum CXCL10 Levels, Post-X4P-001 Monotherapy ([2]; Table 2a (updated data, 16 patients)): 767 pg/mL and 146 pg/mL (2×) and 262 pg/mL and 101 pg/mL and 123 pg/mL and 384 pg/mL and 118 pg/mL and 174 pg/mL and 272 pg/mL and 166 pg/mL and 350 pg/mL and 139 pg/mL and 331 pg/mL and 521 pg/mL
- serum CXCL9 and CXCL10 levels ([3]; following monotherapy, melanoma patients): generally increase following monotherapy
- levels of serum CXCL9 and CXCL10 ([3]; patients with solid tumors, e.g. advanced or metastatic melanoma): increases levels of serum CXCL9 and CXCL10
- levels of serum cytokine panel ([3]; serum): modulates levels of one or more of a panel of serum cytokines
- solubility ([4]; aqueous buffer, pH range 3.0 to 8.0 (freely soluble)): > 100 mg/mL
- solubility in water ([4]; water): only slightly soluble
- levels of Treg cells [5, 12]: without significantly increasing levels of Treg cells
- levels of macrophages in the tumor [5, 12]: without significantly modulating levels of macrophages in the tumor
- numbers of CD8+ T cells and/or CD4+ T cells in tumors [5, 12]: increases observed numbers of CD8^+ T cells and/or CD4^+ T cells
- IFN-γ gene signature ([5]; tumor): increases one or more of a panel of IFN-γ related genes
- PD-L1 expression ([5]; tumor samples and tumor microenvironment): increases PD-L1 expression in tumor samples and the tumor microenvironment
- CTL signature gene expression ([5]; tumor samples or tumor microenvironment): increases gene expression of one or more of a panel of cytotoxic T cell (CTL)-related genes
- pharmacodynamic activity, circulating white blood cells (WBCs) [6]: dose- and concentration-related changes in circulating white blood cells
- volume of distribution (VL) [6]: high volume of distribution
- anti-tumor activity, including decreased metastasis and increased overall survival [7]: significant anti-tumor activity
- half-life [8]: 12 to 24 h

Compound: CO[C@H]1C[C@@H]2CC[C@@H](C)[C@@](O)(O2)C(=O)C(=O)N2CCCC[C@H]2C(=O)O[C@H]([C@H](C)C[C@@H]2CC[C@@H](OCCO)[C@H](OC)C2)CC(=O)[C@H](C)/C=C(\C)[C@@H](O)[C@@H](OC)C(=O)[C@H](C)C[C@H](C)/C=C/C=C/C=C/1C [everolimus]
- objective response rate [9]: 5%

Compound: c1cc(CN2CCCNCCNCCCNCC2)ccc1CN1CCCNCCNCCCNCC1 [plerixafor, Plerixafor]
- anti-tumor activity, including decreased metastasis and increased overall survival [7]: significant anti-tumor activity
- tumor growth ([10]; in combination with anti-PD-L1): synergistically decreased tumor growth
- T-cell accumulation among cancer cells ([10]; murine pancreatic adenocarcinoma): induced rapid T-cell accumulation among the cancer cells

Compound: ipilimumab: anti-CTLA-4 antibody
- objective response rate [11]: 12%

Compound: nivolumab: fully human IgG4 monoclonal antibody binding to the PD-1 receptor
- objective response rate [9]: 25%
- incidence of Grade 3 or 4 treatment-related adverse events ([9]; vs everolimus): lower incidence of Grade 3 or 4 treatment-related adverse events
- median overall survival ([9]; vs everolimus): longer median overall survival

Compound: pembrolizumab: humanized IgG4 kappa monoclonal antibody that blocks the interaction between PD-1 and its ligands
- objective response rate [11]: 33%

— patent US20210025895A1, “CANCER SERUM BIOMARKERS AND METHODS OF USE THEREOF” (X4 Pharmaceuticals, Inc., priority 2018, published 2021)
